In ChEMBL document CHEMBL4507269, “Data for DCP probe BAY-386” (2021):

Tests used:
[1] = target: Histamine H1 receptor (Homo sapiens) (UniProt P35367); test: H1 (h) Eurofins-Cerep Cellular and Nuclear Receptor Functional Assays; settings: Compound concentration 10.0 uM
[2] = target: Serine/threonine-protein kinase MAK (Homo sapiens) (UniProt P20794); settings: Compound concentration 1000.0 nM
[3] = system: Epidermal growth factor receptor (Homo sapiens), P00533 [UNDEFINED MUTATION]; settings: Compound concentration 1000.0 nM
[4] = target: Serine/threonine-protein kinase Sgk2 (Homo sapiens) (UniProt Q9HBY8); settings: Compound concentration 1000.0 nM
[5] = target: Mitogen-activated protein kinase kinase kinase 14 (Homo sapiens) (UniProt Q99558); settings: Compound concentration 1000.0 nM
[6] = target: Serine/threonine-protein kinase 24 (Homo sapiens) (UniProt Q9Y6E0); settings: Compound concentration 1000.0 nM
[7] = target: cAMP-dependent protein kinase catalytic subunit beta (Homo sapiens) (UniProt P22694); settings: Compound concentration 1000.0 nM
[8] = target: Motilin receptor (Homo sapiens) (UniProt O43193); test: motilin (h) Eurofins-Cerep Cellular and Nuclear Receptor Functional Assays; settings: Compound concentration 10.0 uM
[9] = target: Serine/threonine-protein kinase 33 (Homo sapiens) (UniProt Q9BYT3); settings: Compound concentration 1000.0 nM
[10] = target: Serine/threonine-protein kinase MRCK alpha (Homo sapiens) (UniProt Q5VT25); settings: Compound concentration 1000.0 nM
[11] = target: TRAF2 and NCK-interacting protein kinase (Homo sapiens) (UniProt Q9UKE5); settings: Compound concentration 1000.0 nM
[12] = target: Cyclin-dependent kinase 17 (Homo sapiens) (UniProt Q00537); settings: Compound concentration 1000.0 nM
[13] = target: Serine/threonine-protein kinase 10 (Homo sapiens) (UniProt O94804); settings: Compound concentration 1000.0 nM
[14] = target: Dual specificity tyrosine-phosphorylation-regulated kinase 1A (Homo sapiens) (UniProt Q13627); settings: Compound concentration 1000.0 nM
[15] = target: Calcium/calmodulin-dependent protein kinase type II subunit delta (Homo sapiens) (UniProt Q13557); settings: Compound concentration 1000.0 nM
[16] = target: Proto-oncogene tyrosine-protein kinase ROS (Homo sapiens) (UniProt P08922); settings: Compound concentration 1000.0 nM
[17] = target: Serine/threonine-protein kinase PAK 3 (Homo sapiens) (UniProt O75914); settings: Compound concentration 1000.0 nM
[18] = target: D(1A) dopamine receptor (Homo sapiens) (UniProt P21728); test: D1 (h) Eurofins-Cerep Cellular and Nuclear Receptor Functional Assays; settings: Compound concentration 10.0 uM
[19] = target: Mitogen-activated protein kinase 1 (Homo sapiens) (UniProt P28482); settings: Compound concentration 1000.0 nM
[20] = target: SRSF protein kinase 3 (Homo sapiens) (UniProt Q9UPE1); settings: Compound concentration 1000.0 nM
[21] = target: Casein kinase I isoform gamma-2 (Homo sapiens) (UniProt P78368); settings: Compound concentration 1000.0 nM
[22] = target: Hepatocyte growth factor receptor (Homo sapiens) (UniProt P08581); settings: Compound concentration 1000.0 nM
[23] = target: Death-associated protein kinase 3 (Homo sapiens) (UniProt O43293); settings: Compound concentration 1000.0 nM
[24] = target: Mitogen-activated protein kinase kinase kinase kinase 2 (Homo sapiens) (UniProt Q12851); settings: Compound concentration 1000.0 nM
[25] = system: ALK tyrosine kinase receptor (Homo sapiens), Q9UM73 [L1196M]; settings: Compound concentration 1000.0 nM
[26] = target: Activin receptor type-1-like (Homo sapiens) (UniProt P37023); settings: Compound concentration 1000.0 nM
[27] = target: Cyclin-dependent kinase 13 (Homo sapiens) (UniProt Q14004); settings: Compound concentration 1000.0 nM
[28] = target: Serine/threonine-protein kinase TNNI3K (Homo sapiens) (UniProt Q59H18); settings: Compound concentration 1000.0 nM
[29] = target: Homeodomain-interacting protein kinase 2 (Homo sapiens) (UniProt Q9H2X6); settings: Compound concentration 1000.0 nM
[30] = target: Serine/threonine-protein kinase STK11 (Homo sapiens) (UniProt Q15831); settings: Compound concentration 1000.0 nM
[31] = target: Melanocortin receptor 4 (Homo sapiens) (UniProt P32245); test: MC4 (h) Eurofins-Cerep Cellular and Nuclear Receptor Functional Assays; settings: Compound concentration 10.0 uM
[32] = target: Serine/threonine-protein kinase ICK (Homo sapiens) (UniProt Q9UPZ9); settings: Compound concentration 1000.0 nM
[33] = system: Phosphatidylinositol 4,5-bisphosphate 3-kinase catalytic subunit alpha isoform (Homo sapiens), P42336 [I800L]; settings: Compound concentration 1000.0 nM
[34] = target: T1, Muscarinic acetylcholine receptor M2 (Homo sapiens) (UniProt P08172); settings: Compound concentration 10.0 uM
T1 sequence (whole entry): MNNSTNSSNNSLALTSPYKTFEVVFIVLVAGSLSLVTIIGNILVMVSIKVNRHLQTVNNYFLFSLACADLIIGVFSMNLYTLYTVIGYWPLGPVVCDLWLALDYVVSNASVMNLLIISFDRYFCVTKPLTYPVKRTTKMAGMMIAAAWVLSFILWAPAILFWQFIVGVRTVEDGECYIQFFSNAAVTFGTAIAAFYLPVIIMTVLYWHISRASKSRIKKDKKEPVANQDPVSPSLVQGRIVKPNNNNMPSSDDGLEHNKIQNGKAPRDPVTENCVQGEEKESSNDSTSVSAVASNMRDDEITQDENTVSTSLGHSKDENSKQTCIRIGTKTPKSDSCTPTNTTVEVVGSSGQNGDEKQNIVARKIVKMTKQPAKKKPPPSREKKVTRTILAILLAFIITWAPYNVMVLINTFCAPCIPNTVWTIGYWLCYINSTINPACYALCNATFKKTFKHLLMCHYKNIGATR

[35] = system: Epidermal growth factor receptor (Homo sapiens), P00533 [L861Q]; settings: Compound concentration 1000.0 nM
[36] = target: Alpha-2C adrenergic receptor (Homo sapiens) (UniProt P18825); settings: Compound concentration 10.0 uM
[37] = target: Ephrin type-B receptor 4 (Homo sapiens) (UniProt P54760); settings: Compound concentration 1000.0 nM
[38] = target: Platelet-derived growth factor receptor beta (Homo sapiens) (UniProt P09619); settings: Compound concentration 1000.0 nM

Chain of Histamine H1 receptor (Homo sapiens) (P35367 whole entry): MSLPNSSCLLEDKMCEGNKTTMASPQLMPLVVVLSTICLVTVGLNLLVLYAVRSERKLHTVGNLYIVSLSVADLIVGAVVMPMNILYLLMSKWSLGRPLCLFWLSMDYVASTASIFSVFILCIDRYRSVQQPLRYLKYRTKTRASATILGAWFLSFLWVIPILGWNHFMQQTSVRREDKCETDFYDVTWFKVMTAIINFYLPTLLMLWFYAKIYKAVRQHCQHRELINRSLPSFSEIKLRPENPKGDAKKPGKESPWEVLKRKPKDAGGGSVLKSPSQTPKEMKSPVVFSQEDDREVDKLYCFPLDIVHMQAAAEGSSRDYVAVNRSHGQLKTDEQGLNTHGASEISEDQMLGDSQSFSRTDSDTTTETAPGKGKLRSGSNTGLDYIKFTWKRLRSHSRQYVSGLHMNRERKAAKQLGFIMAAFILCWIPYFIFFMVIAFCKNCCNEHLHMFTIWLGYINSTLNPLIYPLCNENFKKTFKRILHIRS
Chain of Melanocortin receptor 4 (Homo sapiens) (P32245 whole entry): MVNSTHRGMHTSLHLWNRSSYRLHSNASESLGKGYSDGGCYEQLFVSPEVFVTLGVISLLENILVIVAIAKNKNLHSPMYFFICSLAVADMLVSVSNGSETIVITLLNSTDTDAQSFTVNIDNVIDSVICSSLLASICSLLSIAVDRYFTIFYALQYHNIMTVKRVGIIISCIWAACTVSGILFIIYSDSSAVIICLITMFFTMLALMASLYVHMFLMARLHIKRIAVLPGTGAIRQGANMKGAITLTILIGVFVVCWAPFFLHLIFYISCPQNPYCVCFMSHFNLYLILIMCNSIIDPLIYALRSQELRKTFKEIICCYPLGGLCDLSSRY
Chain of D(1A) dopamine receptor (Homo sapiens) (P21728 whole entry): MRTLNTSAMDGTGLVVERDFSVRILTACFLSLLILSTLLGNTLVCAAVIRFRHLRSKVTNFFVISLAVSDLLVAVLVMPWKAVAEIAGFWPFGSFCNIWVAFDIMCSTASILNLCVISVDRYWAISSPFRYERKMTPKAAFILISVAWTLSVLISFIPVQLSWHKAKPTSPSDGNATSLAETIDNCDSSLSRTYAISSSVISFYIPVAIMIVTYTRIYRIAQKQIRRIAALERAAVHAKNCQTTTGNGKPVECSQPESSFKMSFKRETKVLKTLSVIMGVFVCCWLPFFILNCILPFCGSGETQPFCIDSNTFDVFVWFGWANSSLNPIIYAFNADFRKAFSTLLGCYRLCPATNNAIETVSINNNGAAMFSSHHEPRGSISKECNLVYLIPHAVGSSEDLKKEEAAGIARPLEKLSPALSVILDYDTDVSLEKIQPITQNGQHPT
Chain of Motilin receptor (Homo sapiens) (O43193 whole entry): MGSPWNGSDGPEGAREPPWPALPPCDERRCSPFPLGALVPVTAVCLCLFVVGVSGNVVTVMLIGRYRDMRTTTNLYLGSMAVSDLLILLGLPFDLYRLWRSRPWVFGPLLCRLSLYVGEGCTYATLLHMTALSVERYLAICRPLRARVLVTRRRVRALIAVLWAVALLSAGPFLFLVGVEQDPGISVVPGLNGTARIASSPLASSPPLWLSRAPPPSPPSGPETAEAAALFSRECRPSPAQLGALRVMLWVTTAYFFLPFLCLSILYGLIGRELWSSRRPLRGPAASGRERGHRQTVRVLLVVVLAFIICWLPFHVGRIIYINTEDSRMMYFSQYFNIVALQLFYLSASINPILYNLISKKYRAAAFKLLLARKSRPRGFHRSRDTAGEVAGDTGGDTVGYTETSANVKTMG
Chain of Alpha-2C adrenergic receptor (Homo sapiens) (P18825 whole entry): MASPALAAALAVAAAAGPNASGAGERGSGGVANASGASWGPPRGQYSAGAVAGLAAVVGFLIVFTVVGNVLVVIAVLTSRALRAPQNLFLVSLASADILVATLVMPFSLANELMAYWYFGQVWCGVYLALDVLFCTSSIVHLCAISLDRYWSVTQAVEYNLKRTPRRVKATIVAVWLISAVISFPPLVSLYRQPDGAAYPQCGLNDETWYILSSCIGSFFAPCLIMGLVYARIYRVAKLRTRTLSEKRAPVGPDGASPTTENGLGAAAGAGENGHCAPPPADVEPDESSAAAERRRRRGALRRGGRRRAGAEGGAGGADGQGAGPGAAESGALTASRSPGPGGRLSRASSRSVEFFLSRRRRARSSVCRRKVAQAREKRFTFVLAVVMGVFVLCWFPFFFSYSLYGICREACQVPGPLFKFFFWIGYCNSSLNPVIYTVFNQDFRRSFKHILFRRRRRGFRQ
Chain of Phosphatidylinositol 4,5-bisphosphate 3-kinase catalytic subunit alpha isoform (Homo sapiens), P42336 [I800L] (P42336 whole entry I800L, canonical isoform): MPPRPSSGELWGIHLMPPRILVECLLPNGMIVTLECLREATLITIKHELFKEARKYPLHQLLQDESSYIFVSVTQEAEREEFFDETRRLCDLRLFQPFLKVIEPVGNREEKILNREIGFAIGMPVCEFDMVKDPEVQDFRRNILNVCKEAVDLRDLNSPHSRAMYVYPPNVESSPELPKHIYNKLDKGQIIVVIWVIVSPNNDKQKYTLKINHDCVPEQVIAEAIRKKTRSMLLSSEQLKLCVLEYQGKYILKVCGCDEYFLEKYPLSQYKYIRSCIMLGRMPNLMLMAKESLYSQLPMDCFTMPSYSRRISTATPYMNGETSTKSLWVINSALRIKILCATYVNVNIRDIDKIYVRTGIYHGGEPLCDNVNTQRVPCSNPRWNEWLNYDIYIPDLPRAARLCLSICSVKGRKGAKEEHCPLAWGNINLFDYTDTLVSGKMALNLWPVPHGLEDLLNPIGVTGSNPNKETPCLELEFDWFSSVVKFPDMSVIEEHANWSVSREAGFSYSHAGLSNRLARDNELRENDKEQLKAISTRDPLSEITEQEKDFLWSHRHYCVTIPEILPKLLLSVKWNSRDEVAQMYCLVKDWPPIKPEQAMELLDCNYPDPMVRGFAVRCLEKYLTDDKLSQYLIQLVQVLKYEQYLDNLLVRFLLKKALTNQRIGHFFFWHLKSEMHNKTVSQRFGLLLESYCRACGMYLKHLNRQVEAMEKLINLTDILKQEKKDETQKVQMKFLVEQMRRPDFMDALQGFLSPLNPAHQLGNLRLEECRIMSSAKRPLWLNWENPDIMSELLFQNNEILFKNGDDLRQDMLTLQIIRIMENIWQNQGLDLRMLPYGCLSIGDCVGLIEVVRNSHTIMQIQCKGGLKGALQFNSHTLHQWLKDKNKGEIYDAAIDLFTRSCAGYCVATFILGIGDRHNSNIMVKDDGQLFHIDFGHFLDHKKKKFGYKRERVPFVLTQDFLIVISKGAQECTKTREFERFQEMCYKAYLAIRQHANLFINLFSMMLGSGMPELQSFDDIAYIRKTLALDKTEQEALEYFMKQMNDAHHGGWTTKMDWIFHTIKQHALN
Chain of Hepatocyte growth factor receptor (Homo sapiens) (P08581 whole entry): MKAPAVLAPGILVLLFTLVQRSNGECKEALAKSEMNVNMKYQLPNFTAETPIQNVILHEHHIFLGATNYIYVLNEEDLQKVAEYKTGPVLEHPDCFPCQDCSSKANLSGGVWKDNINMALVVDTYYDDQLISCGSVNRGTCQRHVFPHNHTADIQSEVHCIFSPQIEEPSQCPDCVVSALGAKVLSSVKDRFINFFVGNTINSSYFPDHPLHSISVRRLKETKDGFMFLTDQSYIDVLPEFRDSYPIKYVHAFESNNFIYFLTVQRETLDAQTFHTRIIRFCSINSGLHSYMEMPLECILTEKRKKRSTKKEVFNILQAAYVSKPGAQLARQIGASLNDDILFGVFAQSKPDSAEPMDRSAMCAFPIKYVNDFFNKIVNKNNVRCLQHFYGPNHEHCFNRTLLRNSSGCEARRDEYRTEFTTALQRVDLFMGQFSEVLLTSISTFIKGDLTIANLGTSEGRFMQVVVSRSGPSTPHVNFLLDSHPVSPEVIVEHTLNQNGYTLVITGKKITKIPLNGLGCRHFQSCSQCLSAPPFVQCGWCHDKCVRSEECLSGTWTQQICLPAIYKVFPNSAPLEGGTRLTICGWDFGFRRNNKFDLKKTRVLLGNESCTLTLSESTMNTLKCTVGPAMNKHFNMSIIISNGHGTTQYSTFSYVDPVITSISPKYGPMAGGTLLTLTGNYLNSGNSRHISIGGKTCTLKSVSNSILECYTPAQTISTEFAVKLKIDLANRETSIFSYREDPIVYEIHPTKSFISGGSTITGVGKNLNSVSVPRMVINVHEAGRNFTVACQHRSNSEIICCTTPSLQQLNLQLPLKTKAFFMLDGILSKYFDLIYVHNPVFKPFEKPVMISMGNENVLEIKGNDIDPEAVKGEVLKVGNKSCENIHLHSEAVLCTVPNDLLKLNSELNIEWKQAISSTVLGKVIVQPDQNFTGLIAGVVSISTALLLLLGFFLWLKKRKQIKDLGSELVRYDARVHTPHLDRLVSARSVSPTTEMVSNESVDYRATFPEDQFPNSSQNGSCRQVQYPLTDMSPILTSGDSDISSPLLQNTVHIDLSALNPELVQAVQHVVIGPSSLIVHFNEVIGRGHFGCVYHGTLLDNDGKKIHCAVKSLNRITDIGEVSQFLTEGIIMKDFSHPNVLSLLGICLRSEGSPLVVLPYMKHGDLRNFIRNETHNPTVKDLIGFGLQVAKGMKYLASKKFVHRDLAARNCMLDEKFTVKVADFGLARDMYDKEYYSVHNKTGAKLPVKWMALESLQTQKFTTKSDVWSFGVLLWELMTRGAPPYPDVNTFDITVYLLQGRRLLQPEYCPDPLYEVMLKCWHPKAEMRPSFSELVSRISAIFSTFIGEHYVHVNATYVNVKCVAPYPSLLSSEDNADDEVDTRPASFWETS
Chain of Casein kinase I isoform gamma-2 (Homo sapiens) (P78368 whole entry, looked up, canonical isoform): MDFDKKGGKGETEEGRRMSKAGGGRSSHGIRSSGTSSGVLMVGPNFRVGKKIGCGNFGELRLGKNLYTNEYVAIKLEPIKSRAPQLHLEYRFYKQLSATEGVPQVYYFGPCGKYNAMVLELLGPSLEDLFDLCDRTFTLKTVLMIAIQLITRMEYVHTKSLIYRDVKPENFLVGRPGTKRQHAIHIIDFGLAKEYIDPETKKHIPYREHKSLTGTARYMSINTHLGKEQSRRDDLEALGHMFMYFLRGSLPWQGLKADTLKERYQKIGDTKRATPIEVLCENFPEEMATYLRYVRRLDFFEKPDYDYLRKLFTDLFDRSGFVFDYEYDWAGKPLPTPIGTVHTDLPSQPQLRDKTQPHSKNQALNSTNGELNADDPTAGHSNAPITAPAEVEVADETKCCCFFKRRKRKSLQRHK

O=C(N1CCS(=O)(=O)CC1)N1C[C@H](c2ccc(OC(F)(F)F)cc2)C[C@H](c2nc(C3CC3)no2)C1 [BAY-386]
-31.6%: % Inhibition of Control Agonist Response (Mean n=2) [18]
6.9%: % Inhibition of Control Agonist Response (Mean n=2) [1]
4.1%: % of Control Agonist Response (Mean n=2) [1]
-8.1%: % Inhibition of Control Agonist Response (Mean n=2) [31]
16.7%: % of Control Agonist Response (Mean n=2) [8]
-1.4%: % of Control Agonist Response (Mean n=2) [18]
-1.2%: % of Control Agonist Response (Mean n=2) [31]
inactive: residual activity [2] 100% | residual activity [3] 92% | residual activity [4] 76% | residual activity [5] 87% | residual activity [6] 97% | residual activity [7] 100% | residual activity [9] 99% | residual activity [10] 100% | residual activity [11] 75% | residual activity [12] 98% | residual activity [13] 100% | residual activity [14] 100% | residual activity [15] 100% | residual activity [16] 100% | residual activity [17] 100% | residual activity [19] 95% | residual activity [20] 100% | residual activity [21] 89% | residual activity [22] 100% | residual activity [23] 100% | residual activity [24] 94% | residual activity [25] 65% | residual activity [26] 100% | residual activity [27] 100% | residual activity [28] 100% | residual activity [29] 100% | residual activity [30] 92% | residual activity [32] 100% | residual activity [33] 68% | inhibition [34] -9.14% | residual activity [35] 68% | inhibition [36] 11.6% | residual activity [37] 100% | residual activity [38] 100%
29.2%: % Inhibition of Control Agonist Response (Mean n=2) [8]

Cc1noc([C@H]2C[C@@H](c3ccc(C(F)(F)F)cc3)CN(C(=O)N3CCS(=O)(=O)C3)C2)n1 [BAY-448]
13.9%: % Inhibition of Control Agonist Response (Mean n=2) [18]
6.9%: % of Control Agonist Response (Mean n=2) [8]
-14.6%: % Inhibition of Control Agonist Response (Mean n=2) [1]
inactive: residual activity [2] 100% | residual activity [3] 67% | residual activity [4] 100% | residual activity [5] 91% | residual activity [6] 100% | residual activity [7] 100% | residual activity [9] 100% | residual activity [10] 100% | residual activity [11] 99% | residual activity [12] 100% | residual activity [13] 100% | residual activity [14] 100% | residual activity [15] 100% | residual activity [16] 86% | residual activity [17] 100% | residual activity [19] 100% | residual activity [20] 100% | residual activity [21] 100% | residual activity [22] 100% | residual activity [23] 100% | residual activity [24] 100% | residual activity [25] 100% | residual activity [26] 100% | residual activity [27] 96% | residual activity [28] 100% | residual activity [29] 100% | residual activity [30] 100% | residual activity [32] 62% | residual activity [33] 100% | inhibition [34] 39.5% | residual activity [35] 78% | inhibition [36] 10.5% | residual activity [37] 100% | residual activity [38] 100%
14.3%: % Inhibition of Control Agonist Response (Mean n=2) [31]
-1.2%: % of Control Agonist Response (Mean n=2) [18]
0.3%: % of Control Agonist Response (Mean n=2) [1]
-1.8%: % of Control Agonist Response (Mean n=2) [31]
0.9%: % Inhibition of Control Agonist Response (Mean n=2) [8]
